Patent US20120022121A1, “INDOLES, DERIVATIVES AND ANALOGS THEREOF AND USES THEREFOR” (priority 2007, published 2012)

Experiments:
TSU = assay: Cell viability SRB assay, 96 h; format: cell-based; settings: Homo sapiens, TSU (TSU-Pr1)
Procedure: (§1) Cell viability (LNCaP, PC-3 prostate, DU145, PPC-1, and TSU-Pr1 prostate cancer cell lines, HT-29 colon cancer cell line, and MCF-7 breast cancer cell line) was quantitated using the sulforhodamine B (SRB) assay after 96 h coincubation with different concentrations of compound in 96-well plates. Cell viability of leukemia cells (K562 and doxorubicin-resistant K562/Dox) was quantitated by MTT assay after 96 h coincubation with different concentrations of compound in 96-well plates. Drug-induced apoptosis was determined by anti-histone ELISA assay and DNA laddering. Cell cycle progression was assessed by propidium iodide staining and fluorescence-activated cell sorting (FACS) analysis. In vitro tubulin polymerization assay was determined by CytoDYNAMIX ScreenTM3 (CDS-03) kits according to the manufacturer's instructions. Anti-apoptosis protein (Bcl-2 and Bcl-xl) and pro-apoptosis protein (Bax) were examined in LNCaP and PC-3 after 24 h incubation with different concentrations of compound 13 by Western blot assay. In vivo PC-3 xenograft studies were conducted by i.v. dosing of 50 mg/kg, 100 mg/kg and 150 mg/kg for 2 weeks.
(§2) Cells were plated in 96-well plates at a density of 800-5,000 cells/well, depending on the cell line, in their required growth media containing 10% fetal bovine serum. Preliminary studies were performed with each cell line using a variety of cell densities and incubation times to determine appropriate seeding densities. The compound of interest was dissolved in DMSO, diluted in cell culture medium (final DMSO concentration was less than 0.5% v/v), and added to quadruplicate wells at final concentrations ranging from 0 to 100 μM. Control wells to which only drug-free vehicle was added were included as negative controls.
(§3) Cells were incubated for 96 hour at 37° C. in a humidified atmosphere containing 5% carbon dioxide.
(§4) Cells were stained with SRB solution. […] WinNonlin was provided by a Pharsight Academic License to The Ohio State University.

DU-145 = assay: Cell viability SRB assay, 96 h; format: cell-based; settings: Homo sapiens, DU-145, 96 h
Procedure: as §1, §2, §3, §4

PPC-1 [1] = assay: Cell viability SRB assay, 96 h; format: cell-based; settings: Homo sapiens, PPC-1, 96 h
Procedure: as §1, §2, §3, §4

LNCaP [2] = assay: Cell viability SRB assay, 96 h; format: cell-based; settings: Homo sapiens
Procedure: as §1, §2, §3, §4

PC-3 [3] = assay: Cell viability SRB assay, 96 h; format: cell-based; settings: Homo sapiens, PC-3, 96 h
Procedure: as §1, §2, §3, §4

PC-3 [4] = assay: Cytotoxicity assay (SRB, 96 h); format: cell-based; settings: Homo sapiens, PC-3, 96 h
A375 = assay: Cytotoxicity assay (SRB, 48 h); format: cell-based, human; settings: Homo sapiens
WM164 = assay: Cytotoxicity assay (SRB, 48 h); format: cell-based, human; settings: Homo sapiens, WM164 melanoma
LNCaP [5] = assay: Cytotoxicity assay (SRB, 96 h); format: cell-based; settings: Homo sapiens
Du 145 = assay: Cytotoxicity assay (SRB, 96 h); format: cell-based; settings: Homo sapiens; Du 145, 96 h
PPC-1 [6] = assay: Cytotoxicity assay (SRB, 96 h); format: cell-based; settings: Homo sapiens, PPC-1, 96 h
[7] = test system: melanoma and prostate cancer cell lines; assay: Cytotoxicity assay (SRB), summary over the cell lines of Table 3; format: cell-based; settings: Homo sapiens

melting point | IC50 (DU-145) | IC50 (LNCaP [2]) | IC50 (PC-3 [3]) | Compound | IC50 (TSU) | IC50 (PPC-1 [1]) | IC50 (PC-3 [4]) | IC50 (A375; A-375, 48 h, A375 melanoma) | IC50 (WM164; WM164, 48 h) | IC50 (LNCaP [5]) | IC50 (Du 145) | IC50 (PPC-1 [6]) | IC50 (A375; A-375, A375 melanoma) | IC50 (WM164) | IC50 [7]
76 to 78 °C | > 100 µM | > 100 µM | > 100 µM | O=S(=O)(c1ccccc1)n1c(Cc2cccc(-c3cc4ccccc4n3S(=O)(=O)c3ccccc3)c2)cc2ccccc21 [Compound 9, (1-Benzenesulfonyl-1H-indol-2-yl)-[3-(1-benzenesulfonyl-1H-indol-2-yl)phenyl]methane] | > 100 µM | > 100 µM |  |  |  |  |  |  |  |  | 
82 to 85 °C | 11.6 µM | 5.6 µM | 13.5 µM | OC(c1cccc(-c2cc3ccccc3[nH]2)c1)c1cc2ccccc2[nH]1 (stereo not shown) [Compound 11, (1H-indol-2-yl)-[3-(1H-indol-2-yl)phenyl]methanol] |  | 3.8 µM |  |  |  |  |  |  |  |  | 
 |  | 58.5 ± 14.3 µM | 90.4 ± 27.5 µM | COC(=O)c1csc(C(=O)c2c[nH]c3ccccc23)n1 [Compound 59, methyl 2-(1H-indole-3-carbonyl)thiazole-4-carboxylate] |  |  |  |  |  |  |  |  |  |  | 
 | 38 µM | 4.2 µM | 11.6 µM | COc1cc(-c2cccc(C(O)c3cc4ccccc4n3S(=O)(=O)c3ccccc3)c2)cc(OC)c1OC (stereo not shown) [Compound 63, (1-Benzenesulfonyl-1H-indol-2-yl)-(3′,4′,5′-trimethoxy-biphenyl-3-yl)-methanol] |  | 21.8 µM |  |  |  |  |  |  |  |  | 
 | 16.2 µM | 3 µM | 4.6 µM | COc1cc(-c2cccc(C(=O)c3cc4ccccc4[nH]3)c2)cc(OC)c1OC [Compound 65, (1H-Indol-2-yl)-(3′,4′,5′-trimethoxy-biphenyl-3-yl)-methanone] |  | 4.1 µM |  |  |  |  |  |  |  |  | 
 | 7.2 µM | 3.1 µM | 5.9 µM | COc1cc(C(O)c2cccc(-c3cc4ccccc4[nH]3)c2)cc(OC)c1OC (stereo not shown) [Compound 66A, [3-(1H-Indol-2-yl)-phenyl]-(3,4,5-trimethoxy-phenyl)-methanol] |  | 1.9 µM |  |  |  |  |  |  |  |  | 
 | 18 µM | 7.8 µM | 9.2 µM | COc1cc(C(=O)c2cccc(-c3cc4ccccc4n3S(=O)(=O)c3ccccc3)c2)cc(OC)c1OC [Compound 67, [3-(1-Benzenesulfonyl-1H-indol-2-yl)-phenyl]-(3,4,5-trimethoxy-phenyl)-methanone] |  | 68.5 µM |  |  |  |  |  |  |  |  | 
 | 1.4 µM | 3.7 µM | 2.6 µM | COc1ccc(C(=O)c2cccc(-c3cc4ccccc4[nH]3)c2)cc1 [Compound 84, [3-(1H-Indol-2-yl)-phenyl]-(4-methoxy-phenyl)-methanone] |  | 0.9 µM |  |  |  |  |  |  |  |  | 
171 to 173 °C |  |  |  | COc1cc(C(=O)c2cc3ccc(F)cc3n2S(=O)(=O)c2ccccc2)cc(OC)c1OC [Compound 106, (6-Fluoro-1-(phenylsulfonyl)-1H-indol-2-yl)(3,4,5-trimethoxyphenyl)methanone] |  |  | > 10 µM | > 10 µM | > 10 µM | > 10 µM | > 10 µM | > 10 µM |  |  | 
207 to 209 °C |  |  |  | COc1cc(C(=O)c2cc3ccc(Cl)cc3[nH]2)cc(OC)c1OC [Compound 112, (6-Chloro-1H-indol-2-yl)(3,4,5-trimethoxyphenyl)methanone] |  |  | > 10 µM | > 10 µM | > 10 µM | > 10 µM | > 10 µM | > 10 µM |  |  | > 10 µM
179 to 181 °C |  |  |  | COc1cc(C(=O)c2cc3ccc(C)cc3[nH]2)cc(OC)c1OC [Compound 116, (6-Methyl-1H-indol-2-yl)(3,4,5-trimethoxyphenyl)methanone] |  |  | > 10 µM | > 10 µM | > 10 µM | > 10 µM | > 10 µM | > 10 µM |  |  | 
 | 5.73 µM | 2.78 µM | 2.7 µM | O=C(c1ccc(F)cc1)c1cccc(-c2ccc3[nH]ccc3c2)c1 [Compound 125, (4-Fluoro-phenyl)-[3-(1H-indol-5-yl)-phenyl]-methanone] |  | 0.63 µM |  |  |  |  |  |  |  |  | 
 | 21.8 µM | 23.8 ± 3 µM | 65.1 ± 5.3 µM | OCc1cccc(-c2cc3ccccc3[nH]2)c1 [Compound 130] |  | 26.6 µM |  |  |  |  |  |  |  |  | 

The next lines start with the compound.

Compound | melting point | IC50 (DU-145) | IC50 (LNCaP [2]) | IC50 (PC-3 [3]) | IC50 (TSU) | IC50 (PPC-1 [1]) | IC50 (PC-3 [4]) | IC50 (A375; A-375, 48 h, A375 melanoma) | IC50 (WM164; WM164, 48 h) | IC50 (LNCaP [5]) | IC50 (Du 145) | IC50 (PPC-1 [6]) | IC50 (A375; A-375, A375 melanoma) | IC50 (WM164) | IC50 [7]
COc1cc(-c2cccc(C(=O)c3cc4ccccc4n3S(=O)(=O)c3ccccc3)c2)cc(OC)c1OC [Compound 64, (1-Benzenesulfonyl-1H-indol-2-yl)-(3′,4′,5′-trimethoxy-biphenyl-3-yl)-methanone] |  | 29.2 µM | 4.9 µM | 29.2 µM | 58.9 µM | 44.7 µM |  |  |  |  |  |  |  |  | 
COc1cc(C(O)c2cccc(-c3cc4ccccc4n3S(=O)(=O)c3ccccc3)c2)cc(OC)c1OC (stereo not shown) [Compound 66, [3-(1-Benzenesulfonyl-1H-indol-2-yl)-phenyl]-(3,4,5-trimethoxy-phenyl)-methanol] |  | 61.5 µM | 10.1 µM | 45 µM |  | 35.3 µM |  |  |  |  |  |  |  |  | 
O=C(c1ccccc1)c1cccc(-c2cc3ccccc3[nH]2)c1 [Compound 80A, [3-(1H-Indol-2-yl)-phenyl]-phenyl-methanone] |  | 2.12 µM | 1.74 µM | 2 µM |  | 1.52 µM |  |  |  |  |  |  |  |  | 
COc1ccc2cc(C(=O)c3cc(OC)c(OC)c(OC)c3)n(S(=O)(=O)c3ccccc3)c2c1 [Compound 107, (6-Methoxy-1-(phenylsulfonyl)-1H-indol-2-yl)(3,4,5-trimethoxyphenyl)methanone] | 156 to 158 °C |  |  |  |  |  | 2.66 µM |  |  | > 10 µM | > 10 µM | 1.05 µM | 8.22 µM | > 10 µM | 
COc1cc(C(=O)c2cc3ccc(F)cc3[nH]2)cc(OC)c1OC [Compound 113, (6-Fluoro-1H-indol-2-yl)(3,4,5-trimethoxyphenyl)methanone] |  |  |  |  |  |  | > 10 µM | > 10 µM | > 10 µM | > 10 µM | > 10 µM | > 10 µM |  |  | > 10 µM
COc1cc(C(=O)c2cc3cc(F)ccc3[nH]2)cc(OC)c1OC [Compound 117, (5-Fluoro-1H-indol-2-yl)(3,4,5-trimethoxyphenyl)methanone] | 196 to 198 °C |  |  |  |  |  | 9.16 µM | 2.21 µM | 2.26 µM | 8.63 µM | 3.42 µM | 1 µM |  |  | 
COc1cc(C(=O)c2cc3ccc(Cl)cc3n2C)cc(OC)c1OC [Compound 119, (6-Chloro-1-methyl-1H-indol-2-yl)(3,4,5-trimethoxyphenyl)methanone] |  |  |  |  |  |  | 3.76 ± 0.83 µM |  |  | 1.04 ± 0.25 µM | > 10 µM | 4.33 ± 0.72 µM | 6.65 ± 0.33 µM | 8.08 ± 1.21 µM | 
COc1cc(C(=O)c2cc3ccc(Cl)cc3n2Cc2ccccc2)cc(OC)c1OC [Compound 120, (1-Benzyl-6-chloro-1H-indol-2-yl)(3,4,5-trimethoxyphenyl)methanone] |  |  |  |  |  |  | > 10 µM | > 10 µM | > 10 µM | > 10 µM | > 10 µM | > 10 µM |  |  | > 10 µM
COc1cc(C(=O)c2cc3ccc(F)cc3n2C)cc(OC)c1OC [Compound 121, (6-Fluoro-1-methyl-1H-indol-2-yl)(3,4,5-trimethoxyphenyl)methanone] |  |  |  |  |  |  | > 10 µM |  |  | 1.05 µM | > 10 µM | 8.3 µM | 5.87 µM | 7.5 µM | 1 to 10 µM
O=C(c1ccc(F)cc1)c1cccc(-c2cc3ccccc3n2S(=O)(=O)c2ccccc2)c1 [Compound 126, [3-(1-Benzenesulfonyl-1H-indol-2-yl)-phenyl]-(4-fluoro-phenyl)-methanone] |  | 4.01 µM | 1.56 µM | 1.5 µM |  | 0.55 µM |  |  |  |  |  |  |  |  | 
COc1ccc2[nH]c(C(=O)c3cc(OC)c(OC)c(OC)c3)cc2c1 [Compound 148, (5-Methoxy-1H-indol-2-yl)(3,4,5-trimethoxyphenyl)methanone] |  |  |  |  |  |  | 0.04 µM |  |  | 0.05 µM | 0.08 µM | 0.05 µM | 0.03 µM | 0.04 µM | 0.05 µM
c1ccc2[nH]ccc2c1 [indole] |  | > 100 µM | > 100 µM | > 100 µM | > 100 µM | > 100 µM |  |  |  |  |  |  |  |  | 
